Laboratory results reported in paper PMC4438233, “Antibacterial effects of Traditional Chinese Medicine monomers against Streptococcus pneumoniae via inhibiting pneumococcal histidine kinase (VicK)” (Frontiers in Microbiology, 2015).
Where two headings read alike, the source gives them in different places.

Tests used:
full-length VicK protein = molecular target: T1, full-length VicK protein (Streptococcus pneumoniae, UniProt Q8DPL8); assay: Inhibition assay for ATPase activity of VicK (Kinase-Glo Luminescent Kinase Assay); assay type: biochemical; details: 6 μg VicK, 5 μM ATP
T1 construct: 6 His; made in house
T1 sequence (Q8DPL8 whole entry): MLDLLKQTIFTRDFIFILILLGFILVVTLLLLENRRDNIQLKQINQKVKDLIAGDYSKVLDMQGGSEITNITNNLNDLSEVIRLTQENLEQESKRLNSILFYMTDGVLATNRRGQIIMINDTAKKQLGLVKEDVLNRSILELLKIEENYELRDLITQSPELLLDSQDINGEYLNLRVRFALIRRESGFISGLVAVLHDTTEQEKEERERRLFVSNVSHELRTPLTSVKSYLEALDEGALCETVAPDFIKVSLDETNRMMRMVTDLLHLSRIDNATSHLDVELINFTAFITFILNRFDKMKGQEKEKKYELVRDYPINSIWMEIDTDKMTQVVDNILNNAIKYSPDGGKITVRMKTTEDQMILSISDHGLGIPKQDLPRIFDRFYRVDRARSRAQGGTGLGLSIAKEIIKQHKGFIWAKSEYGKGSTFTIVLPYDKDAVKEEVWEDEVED
Description: The inhibitory activities of the Chinese medicine monomers for the ATPase activity of the full-length VicK protein were evaluated using the Kinase-Glo™Luminescent Kinase Assay (Promega, Madison, USA). Briefly, 6 μg VicK protein was pre-incubated with a series of dilution of compounds in the reaction buffer at 37°C for 30 min. 5 μM ATP was added and incubated for another 30 min. Kinase-Glo™Reagent was also added to detect the remaining ATP recorded from luminescence measurements (RLU). In parallel, the VicK protein with no addition of compounds was used as a control, and the mixture with compounds excluding the VicK protein served as another control. The rate of protein phosphorylation (Rp) inhibition by the compounds was calculated from Equation (1).
(1) Rp=1−RLU(compound+ATP+Reagent) −RLU(compound+ATP+vick+Reagent)/RLU(ATP +Reagent)−RLU(ATP+vick+Reagent)×100%
The half maximal inhibitory concentration (IC50), which is the concentration of inhibition of 50% VicK protein autophosphorylation, was determined by GraphPad Prism 5 (Qin et al., [2006]).

S. pneumoniae NCTC7466 = assay: Mouse sepsis model, survival time; assay type: in vivo, BALB/c mice; details: i.p. infection 1 × 10^3 CFU; drug i.p. thrice a day for 3 d; untreated control 28.8 ± 1.25
Description: Female BALB/c mice (12–15 per group) aged 4–6 weeks were used to evaluate the antimicrobial effects of the compounds in vivo. In sepsis models, the mice were intraperitoneally infected with 100 μL S. pneumoniae NCTC7466 strain suspension (1 × 10^3 CFU). […] Two control groups were injected with 100 μL 1% DMSO (dissolved the drugs, negative control) or PEN (0.42 mg/kg/d, positive control) following the same injection route. The result was expressed as cumulative survival times following 7 d of observation.

Row | SMILES | IC50 (full-length VicK protein; read-out: IC50 (inhibition of VicK ATPase activity / autophosphorylation) (converted)) [µM] | IC50 (full-length VicK protein; value in parentheses, read-out: IC50 (inhibition of VicK ATPase activity / autophosphorylation) (converted)) [µM] | Mean survival of mice ± SEM (S. pneumoniae NCTC7466) [h] | IC50 (full-length VicK protein; IC50 (inhibition of VicK ATPase activity / autophosphorylation)) [µM] | IC50 (full-length VicK protein; IC50 (inhibition of VicK ATPase activity / autophosphorylation), value in parentheses) [µM]
1 | CC(C)=CCCC1=CC(=O)c2c(O)ccc(O)c2C1=O [Compound 3, Deoxyshikonin] | 15.4 | 15.4 | 50.6 ± 4.1 | – | –
2 | CCCCCCCCCCCCOC(=O)c1cc(O)c(O)c(O)c1 [Compound 5, Dodecyl gallate] | – | – | 60.2 ± 7.3 | 9.1 | 9.07
